According to patent publication US7071168B2, “Anti-cancer compounds and methods related thereto” (The Regents of the University of Colorado, priority 1998, dated 2006):

System: bradykinin response of isolated guinea pig ileum
Test: Anti-bradykinin activity on isolated guinea pig ileum
Conditions: Table 1; higher numbers indicate higher potency
Protocol: In general, Anti-bradykinin activity was determined by the classical guinea pig ileum assay and on Chinese hamster ovary (CHO) cells expressing cloned human bradykinin B2 receptors. Anti-tumor activity was determined on cultured human cancer cell lines using the standard tetrazolium (MTT) assay.
Male Hartley guinea pigs that had been deprived of food overnight were sacrificed, and sections of terminal ileum, 25 mm in length, were dissected, attached to tissue holders and immersed in 10 ml tissue baths containing Krebs' solution bubbled with 95% O2/5% CO2. Tissues were placed under 1 g tension and incubated for 1 h equilibration. Concentration-effect curves were constructed to bradykinin in the absence and presence of new compounds.

Row | Compound | GPI: pA2 for bradykinin antagonist activity on isolated guinea pig ileum
1 | N=C(N)NCCCC(NC(=O)C=Cc1c(F)c(F)c(F)c(F)c1F)C(=O)O (stereo not shown) [M370, F5c-Arg] | 4.8
2 | N=C(N)NCCCC(NC(=O)C=Cc1ccc(C(F)(F)F)cc1)C(=O)O (stereo not shown) [M374, Tfmc-Arg] | 4.6
3 | Aaa-DArg-Arg-Pro-Hyp-Gly-(D,L)DMF-Ser-DTic-Oic-Arg [B9126-2] | 7.3
4 | Aaa-DArg-Arg-Pro-Hyp-Gly-(D,L)DMF-Ser-DTic-Oic-Arg [B9126] | 6.4
5 | Aaa-DIgl-hPhe-Arg [M772] | 4.9

Same assay, conditions: isolated guinea pig ileum; pD2 of bradykinin is 7.4; higher numbers indicate higher potency

Row | Compound | GPI: pA2 for bradykinin antagonist activity on isolated guinea pig ileum
6 | O=C(O)CC(NC(=O)C(Cc1ccc2ccccc2c1)NC(=NC1CCCCC1)NC1CCCCC1)C(=O)NC1CN2CCC1CC2 (single isomer, unassigned) [M336-1] | 5.1
7 | O=C(O)CC(NC(=O)C(Cc1ccc2ccccc2c1)NC(=NC1CCCCC1)NC1CCCCC1)C(=O)NC1CN2CCC1CC2 (single isomer, unassigned) [M336-2] | 5.4
8 | N=C(N)NCCCCCC(=O)NC(Cc1ccc2ccccc2c1)C(=O)NC(Cc1ccc(NC(=N)N)cc1)C(=O)O (stereo not shown) [M8] | Inact
9 | O=C(O)Cc1ccc(NC(=O)C(Cc2ccc3ccccc3c2)NC(=NC2CCCCC2)NC2CCCCC2)cc1 (stereo not shown) [M30] | 5.4
10 | N=C(N)NC(Cc1ccc2ccccc2c1)C(=O)Nc1ccc(CC(=O)O)cc1 (stereo not shown) [M32] | 4.8
11 | O=C(O)Cc1ccc(NC(=O)C(Cc2ccc3ccccc3c2)NC(=NC2CCCCC2)NC2CCCCC2)cc1 (stereo not shown) [M36] | 5.0
12 | N=C(N)NC(Cc1ccc2ccccc2c1)C(=O)Nc1ccc(CC(=O)O)cc1 (stereo not shown) [M38] | 4.9
13 | O=C(O)Cc1ccc(NC(=O)C(NC(=NC2CCCCC2)NC2CCCCC2)C2Cc3ccccc3C2)cc1 (stereo not shown) [M72-1] | 4.7
14 | O=C(O)c1cccc(NC(=O)C(Cc2ccc3ccccc3c2)NC(=NC2CCCCC2)NC2CCCCC2)c1 (stereo not shown) [M76] | 4.9
15 | Nc1cc(NC(=O)C(Cc2ccc3ccccc3c2)NC(=NC2CCCCC2)NC2CCCCC2)cc(C(=O)O)c1 (stereo not shown) [M92-1] | 5.0
16 | N=C(N)Nc1cc(NC(=O)C(Cc2ccc3ccccc3c2)NC(=NC2CCCCC2)NC2CCCCC2)cc(C(=O)O)c1 (stereo not shown) [M92-2] | 4.8
17 | O=C(O)c1cc(NC(=O)C(Cc2ccc3ccccc3c2)NC(=NC2CCCCC2)NC2CCCCC2)cc(NC(=NC2CCCCC2)NC2CCCCC2)c1 (stereo not shown) [M92-4] | 5.0
18 | O=C(O)C(Cc1cccnc1)NC(=O)C(Cc1ccc2ccccc2c1)NC(=NC1CCCCC1)NC1CCCCC1 (stereo not shown) [M104] | 4.9
19 | O=C(O)c1cccc(NC(=O)C(Cc2ccc3ccccc3c2)NC(=NC2CCCCC2)NC2CCCCC2)c1 (stereo not shown) [M112] | 5.1
20 | O=C(O)c1ccc(NC(=O)C(Cc2ccc3ccccc3c2)NC(=NC2CCCCC2)NC2CCCCC2)cc1 (stereo not shown) [M120] | 4.7
21 | N=C(Nc1ccc(CC(=O)Nc2cccc(C(=O)O)c2)cc1)NC1CCCCC1 [M122-1] | 5.0
22 | O=C(Cc1ccc(NC(=NC2CCCCC2)NC2CCCCC2)cc1)Nc1cccc(C(=O)O)c1 [M122-2] | 4.6
23 | COc1cc(C=CC(=O)NC(Cc2c(F)c(F)c(F)c(F)c2F)C(=O)NC(Cc2cccnc2)C(=O)O)cc(OC)c1O (stereo not shown) [M136] | Inact
24 | O=C(O)CC(NC(=O)C(Cc1ccc2ccccc2c1)NC(=NC1CCCCC1)NC1CCCCC1)C(=O)O (stereo not shown) [M162] | 4.9

Row | Compound | GPI: pA2 for bradykinin antagonist activity on isolated guinea pig ileum
25 | N=C(Nc1ccc(CC(NC(=O)c2ccc3ccccc3c2)C(=O)O)cc1)NC1CCCCC1 (stereo not shown) [M168-1] | 4.8
26 | O=C(NC(Cc1ccc(NC(=NC2CCCCC2)NC2CCCCC2)cc1)C(=O)O)c1ccc2ccccc2c1 (stereo not shown) [M168-2] | 4.7
27 | O=C(NC(CNC(=O)C(Cc1ccc2ccccc2c1)NC(=NC1CCCCC1)NC1CCCCC1)C(=O)O)C1CCNCC1 (stereo not shown) [M172] | 4.9
28 | O=C(O)CC(NC(=NC1CCCCC1)NC1CCCCC1)C(=O)NC1CN2CCC1CC2 (stereo not shown) [M174] | Inact
29 | O=C(C=Cc1c(F)c(F)c(F)c(F)c1F)Nc1ccc(C(=O)N[C@@H](Cc2ccc3ccccc3c2)C(=O)O)cc1 [M180] | 5.1
30 | O=C(C[C@H](NC(=O)[C@H](Cc1ccc2ccccc2c1)NC(=NC1CCCCC1)NC1CCCCC1)C(=O)O)NC1CN2CCC1CC2 (stereo partly shown) [M188B] | 5.5
31 | O=C(C=Cc1c(F)c(F)c(F)c(F)c1F)NCC(=O)Nc1cccc(C(=O)N[C@@H](Cc2ccc3ccccc3c2)C(=O)O)c1 [M202] | 5.1
32 | CC(=O)Nc1ccc(C=CC(=O)NCC(=O)Nc2cccc(C(=O)NC(Cc3ccc4ccccc4c3)C(=O)O)c2)cc1 (stereo not shown) [M204] | 5.0
33 | CC1(C)CC(NC(=O)[C@H](Cc2ccc3ccccc3c2)NC(=O)C23CC4CC(CC(C4)C2)C3)CC(C)(C)N1 [M250] | 5.2
34 | CC1(C)CC(NC(=O)[C@@H](NC(=NC2CCCCC2)NC2CCCCC2)C2Cc3ccccc3C2)CC(C)(C)N1Cc1ccccc1 [M258] | 5.0
35 | CC1(C)C=C(C(=O)NCCNC(=O)[C@H](Cc2ccc3ccccc3c2)NC(=NC2CCCCC2)NC2CCCCC2)C(C)(C)N1 [M270] | 6.1
36 | O=C(C=Cc1ccc(NC(=NC2CCCCC2)NC2CCCCC2)cc1)NCC(=O)Nc1cccc(C(=O)NC(Cc2ccc3ccccc3c2)C(=O)O)c1 (stereo not shown) [M340] | 4.8
37 | CC1(C)CC(NC(=O)C(CC(=O)O)NC(=O)C(Cc2ccc3ccccc3c2)NC(=NC2CCCCC2)NC2CCCCC2)CC(C)(C)N1 (stereo not shown) [M342] | 5.4
38 | CC1(C)CC(NC(=O)C(CCC(=O)O)NC(=O)C(Cc2ccc3ccccc3c2)NC(=NC2CCCCC2)NC2CCCCC2)CC(C)(C)N1 (stereo not shown) [M350] | 5.0
39 | N=C(N)Nc1ccc(CC(NC(=O)C(Cc2ccc3ccccc3c2)NC(=NC2CCCCC2)NC2CCCCC2)C(=O)O)cc1 (stereo not shown) [M354] | 5.2
40 | CC1(C)CC(NC(=O)C(CC(=O)O)NC(=O)Cc2ccc(NC(=NC3CCCCC3)NC3CCCCC3)cc2)CC(C)(C)N1 (stereo not shown) [M362] | 4.9
41 | CC1(C)CC(NC(=O)C(CC(=O)O)NC(=O)Cc2ccc(NC(=O)C=Cc3c(F)c(F)c(F)c(F)c3F)cc2)CC(C)(C)N1 (stereo not shown) [M364] | 4.7
42 | CC1(C)CC(NC(=O)C(CC(=O)O)NC(=O)Cc2ccc(NC(=O)C=Cc3ccc(C(F)(F)F)cc3)cc2)CC(C)(C)N1 (stereo not shown) [M368] | 4.7
43 | CN1CCN(NC(=O)[C@H](Cc2ccc3ccccc3c2)NC(=O)C=Cc2ccc(NC(=O)CCCCCCCCCCC(=O)Nc3ccc(C=CC(=O)N[C@@H](Cc4ccc5ccccc5c4)C(=O)NN4CCN(C)CC4)cc3)cc2)CC1 [M480-2] | 5.6
